In patent US20240248078A1, “Compositions For and Methods of Evaluating Gap Junction Formation and Function” (Duke University, priority 2021, published 2024):

Experiments:
Assay type in all cases: cell-based, human
HEK 293FT cells = test: Flow enabled tracking of connexosomes in HEK 293FT cells (FETCH); details: for homotypic FETCH score (docking): homotypic pairing of fluorescent C-terminal fusion constructs, Q2/(Q1+Q2+Q3); for heterotypic FETCH score when paired with Cx43: co-plated with cells expressing Cx43
Protocol: FETCH analysis is fundamentally a two-component system. To complete FETCH analysis, replica multi-well plates were transfected with either of the two components being evaluated. The media of transfected wells was changed 16-18 hrs post-transfection and cells were trypsinized and experimental counterparts were combined at ˜20 hrs post-transfection. The entirety of combined samples were then plated onto new, 10 μg/mL Fibronectin coated wells of the same size, resulting in hyperdensity and over confluency. Following co-plating, samples were incubated for ˜20 hr-24 hrs, at which point samples were trypsinized, resuspended in phosphate buffered saline with 10 U/mL DNAse and fixed with paraformaldehyde (f/c of 1.5%). Co-plated samples in 96 well plates were resuspended to a final volume of ˜150 μL, samples from 24-well plates were resuspended to a final volume of ˜600 μL.
Flow cytometry data was collected on either a BD FACSCanto II (2-color experiments and high-throughput 96-well plates; 488 nm and 633 nm lasers), which utilizes the BD FACSDiVa software. Samples were analyzed in two selection gates prior to their fluorescence evaluation. First, presumable HEK cells were identified by evaluating sample forward vs side scatter area. Next, single cells were selected by evaluating cells that maintained a linear correlation of forward scatter height to forward scatter area. Finally, the fluorescence profiles of each sample were generated.
Each FETCH experiment produces “*.fcs” files that contain all the channel data for fluorescence in the sample. The automated pipeline loads these files, extracts FSC-A, SSC-A, and FSC-H. Depending on the machine used, green channel was loaded as 1-A or as FITC-A. For the red channel, both APC-A (RFP670) with PE-A (mApple) can be used or 5-A(RFP670) can be used. Next, the code produces two matrices containing SSC-A with FSC-A, and FSC-A with FSC-H, respectively.
The first gate is drawn on the FSC-A vs SSC-A axes to exclude cellular debris which clusters in the lower left corner and the cells that are saturating the laser (at the max of both axes). On an FSC-A vs SSC-A plot, the cellular debris usually is smoothly transitioning into the population of intact cells, therefore a Gaussian kernel density estimator with the estimator bandwidth selection defined by the Scott's Rule is used to draw contours around the data in SSC-A vs FSC-A matrix. Next, a set of heuristics was used to determine which of the contour lines should be used to define the first gate. Specifically, cellular debris usually clusters below 25000 on both axes, so any contour that includes values at or below is excluded. Similarly, any contour within a 1000 of the maximum value of each axis is also excluded. Of the remaining contours, the largest one is chosen, and an oval equation is fitted to the points defining that contour to attenuate occasional protrusions of the contour that tap into cellular debris population in rare cases. The fitted oval becomes the first gate.
For all the elements inside of the first gate, a second gate was drawn in the axis of FSC-A and FSC-H to exclude non-single cells. For the second gate, a line was fit to all the points. Next, for each point, a norm to the fit line was found and a standard deviation of all such norms was found. Using this standard deviation, a second gate 4 standard deviations away from the fitted line was defined on both sides and excluded all the points outside of this gate.
Upon applying the first two gates, the data was finally plotted with the red fluorophore on the y axis and the green fluorophore on the x axis. If a sample contained more than two fluorophores, then the last gate was drawn for each possible combination. Since some readings are below zero due to fluorescence compensation, all the data points were shifted by the smallest value along both axes and then a natural log of fluorescence levels was taken. […]

293 cells = test: FETCH in 293 cell line; details: compared with HEK 293FT
Source text: (§1) For FETCH to be successful, cells must overexpress Cx-FP constructs to a sufficient degree to promote observable fluorescence exchange.

HeLa cells = test: FETCH in HeLa cell line; details: compared with HEK 293FT
Source text: as §1

| Substance | homotypic FETCH score (docking) (HEK 293FT cells) | further results |
| --- | --- | --- |
| D190A: random alanine scanning mutation of the Cx43 extracellular loops | retained their ability to homotypically dock | – |
| Cx43: human connexin 43 (GJA1), expressed as C-terminal fluorescent fusion protein | significantly positive | FETCH score (293 cells): substantially lower; FETCH score (HeLa cells): substantially lower |
| Cx31.1: human connexin 31.1 (GJB5), C-terminal fluorescent fusion protein | failed to generate a significant homotypic FETCH score | – |
| Cx31.3: human connexin 31.3, C-terminal fluorescent fusion protein | failed to generate a significant homotypic FETCH score | – |
| Cx62: human connexin 62 (GJA10), C-terminal fluorescent fusion protein | failed to generate a significant homotypic FETCH score | – |
| Cx32: human connexin 32 (GJB1), C-terminal fluorescent fusion protein | significantly positive | heterotypic FETCH score when paired with Cx43 (HEK 293FT cells): failed to dock |
| Cx50: human connexin 50 (GJA8), C-terminal fluorescent fusion protein | failed to generate a significant homotypic FETCH score | – |
| Cx43-ELs-Cx26: chimeric construct of the intracellular and transmembrane regions of Cx43 and the ELs of Cx26 | – | FETCH docking when paired with Cx26 (HEK 293FT cells; co-plated with cells expressing Cx26): preferentially docked; heterotypic FETCH score when paired with Cx43 (HEK 293FT cells): not Cx43 |
| Cx31.9: human connexin 31.9 (GJD3), C-terminal fluorescent fusion protein | failed to generate a significant homotypic FETCH score | – |
| Cx45: human connexin 45 (GJC1), C-terminal fluorescent fusion protein | significantly positive | heterotypic FETCH score when paired with Cx43 (HEK 293FT cells): positive |
| Cx59: human connexin 59 (GJA9), C-terminal fluorescent fusion protein | failed to generate a significant homotypic FETCH score | – |
| S182A: random alanine scanning mutation of the Cx43 extracellular loops | retained their ability to homotypically dock | – |
| Cx36: human connexin 36 (GJD2), C-terminal fluorescent fusion protein | significantly positive | heterotypic FETCH score when paired with Cx43 (HEK 293FT cells): failed to dock |
| Cx46: human connexin 46 (GJA3), C-terminal fluorescent fusion protein | failed to generate a significant homotypic FETCH score | – |
